Assay results: patent publication US20050165109A1, “Pharmaceutical composition with combined active agents and methods for using the same” (priority 2002, published 2005)

What was measured:
ob/ob mice [1] = assay: Plasma glucose in ob/ob mice, metformin/ciprofibrate, oral once a day for 4 days; assay type: in vivo; details: for Effect on plasma glucose concentrations (in words) / Glucose levels Day 4: ob/ob mice; for Effect on plasma glucose concentrations (in words): 4 days oral, versus vehicle; for Difference between Vehicle & treatment: plasma glucose Day 4, ob/ob mice; for Difference between Vehicle & treatment / Glucose levels Day 4: metformin 90 mg/kg, ciprofibrate 2.5 mg/kg; for Glucose levels Day 4: plasma glucose, oral once a day for 4 days
Experimental: (§1) Experiment was conducted in ob/ob mice, an animal model of diabetes. Male, 8-9 week old ob/ob mice were purchased from Jackson Laboratory (Bar Harbor, Me.) and housed in a temperature and humidity controlled room with 12 hour light (6 am to 6 pm)/dark (6 pm-6 am) cycle and ad libitum of water and regular Purina chow. Animals were screened for plasma glucose levels and randomized into groups for experiments.
Experiment was conducted in ob/ob mice. The experimental condition was the same as Working Example 1.
In this experiment, 8 animals were orally dosed with vehicle, metformin (90 mg/kg), ciprofibrate (2.5 mg/kg), or combination of metformin (90 mg/kg) and ciprofibrate (2.5 mg/kg) once a day for 4 days. Plasma glucose concentrations were determined at the end of the experiment.

[2] = literature: WO 99/40904, U.S. Pat. No. 5,304,575, Vuorinen-Markkola 1993, Hernandez-Mijares 2000; cited from earlier work
ob/ob mice [3] = assay: Plasma glucose in ob/ob mice, metformin/gemfibrozil, oral once a day for 3 days; assay type: in vivo; details: for Effect on plasma glucose concentrations (in words) / Glucose levels Day 3: ob/ob mice; for Effect on plasma glucose concentrations (in words): 3 days oral, versus vehicle; for Difference between Vehicle & treatment: plasma glucose Day 3, ob/ob mice; for Difference between Vehicle & treatment / Glucose levels Day 3: metformin 90 mg/kg, gemfibrozil 100 mg/kg; for Glucose levels Day 3: plasma glucose, oral once a day for 3 days
Experimental: as §1
In this experiment, 8 animals were orally dosed with vehicle, metformin (90 mg/kg), gemfibrozil (100 mg/kg), or combination of metformin (90 mg/kg) and gemfibrozil (100 mg/kg) once a day for 3 days. Plasma glucose concentrations were determined at the end of the experiment.

Structure (SMILES) | Effect on plasma glucose concentrations (in words) (ob/ob mice [1]) | Effect on plasma glucose concentrations (in words) (ob/ob mice [1]; listed as ciprofibrate) | Difference between Vehicle & treatment (ob/ob mice [1]) [mg/dL] | Glucose levels Day 4 (ob/ob mice [1]) [mg/dL] | Glucose-lowering effect (in words) [2] | Effect on plasma glucose concentrations (in words) (ob/ob mice [3]) | Effect on plasma glucose concentrations (in words) (ob/ob mice [3]; listed as gemfibrozil) | Difference between Vehicle & treatment (ob/ob mice [3]) [mg/dL] | Glucose levels Day 3 (ob/ob mice [3]) [mg/dL]
CC(C)(Oc1ccc(C2CC2(Cl)Cl)cc1)C(=O)O (stereo not shown) [Ciprofibrate, ciprofibrate] | did not have significant effect on glucose levels | minimum effect on reducing plasma glucose and it was not statistically significant | -32.2 | 351.1 ± 23.1 | lack of glucose-lowering effect |  |  |  | 
Cc1ccc(C)c(OCCCC(C)(C)C(=O)O)c1 [Gemfibrozil, gemfibrozil] |  |  |  |  | lack of glucose-lowering effect | did not have significant effect on glucose level | minimum reduction of plasma glucose and it was not statistically significant | -57.1 | 349.7 ± 39.0
CN(C)C(=N)N=C(N)N [Metformin, metformin] | significantly reduced plasma glucose concentrations |  | -84.1 | 299.2 ± 24.9 |  | significantly reduced plasma glucose concentrations |  | -88.2 | 318.6 ± 29.3
